According to ChEMBL document CHEMBL1275364, “Diaryldiamines with dual inhibition of the histamine H(3) receptor and the norepinephrine transporter and the efficacy of 4-(3-(methylamino)-1-phenylpropyl)-6-(2-(pyrrolidin-1-yl)ethoxy)naphthalen-1-ol in pain” (J Med Chem, 2010):
Values after ≈ are worked out from the molar mass of the structure shown. One block for each compound: values may come before it.

What was measured:
[1] = biological target: Sodium-dependent serotonin transporter (Homo sapiens, UniProt P31645)
Histamine H3 receptor [2] = biological target: Histamine H3 receptor (Rattus norvegicus, UniProt Q9QYN8)
Description: Displacement of [3H]N-R-methylhistamine from rat H3 receptor

Transporter = Transporter (Rattus norvegicus, UniProt Q63380); assay: biochemical
Description: Displacement of [3H]nisoxetine from rat NET in rat cerebral cortex

Histamine H3 receptor [3] = biological target: T1, Histamine H3 receptor (Homo sapiens, UniProt Q9Y5N1); assay: biochemical
Description: Displacement of [3H]N-R-methylhistamine from human H3 receptor isolated from C6 cells

Histamine H3 receptor [4] = biological target: T1, Histamine H3 receptor; assay: Antagonist activity at human recombinant histamine H3 receptor expressed in HEK cells assessed as inhibition of RAMH-induced [35S]GTPgammaS binding by liquid scintillation counting; format: functional, cell-based; conditions: HEK293
[5] = Cmax in Sprague-Dawley rat at 1 mg/kg, ip; format: ADME, organism-based; design: dose 1 mg/kg, route intraperitoneal; conditions: in vivo
[6] = Tmax in Sprague-Dawley rat at 1 mg/kg, ip; format: ADME, organism-based; design: dose 1 mg/kg, route intraperitoneal; conditions: in vivo
[7] = Bioavailability in Sprague-Dawley rat at 1 mg/kg, ip and iv; format: ADME, organism-based; conditions: in vivo
[8] = Volume of distribution in Sprague-Dawley rat at 1 mg/kg, iv; format: ADME, organism-based; design: dose 1 mg/kg, route intravenous; conditions: in vivo
[9] = Clearance in Sprague-Dawley rat at 1 mg/kg, iv; format: ADME, organism-based; design: dose 1 mg/kg, route intravenous; conditions: in vivo
[10] = Half life in Sprague-Dawley rat at 1 mg/kg, iv; format: ADME, organism-based; design: dose 1 mg/kg, route intravenous; conditions: in vivo
[11] = Plasma protein binding in Sprague-Dawley rat at 1 mg/kg, iv; format: ADME, organism-based; design: dose 1 mg/kg, route intravenous; conditions: read-out: PPB (converted)
[12] = Plasma protein binding in Sprague-Dawley rat assessed as unbound fraction at 1 mg/kg, iv; format: ADME, organism-based; design: dose 1 mg/kg, route intravenous
Rattus norvegicus [13] = assay: Antiinflammatory activity in Sprague-Dawley rat osteoarthritis model assessed as efficacy at 3 mg/kg, ip after 20 days; format: functional; conditions: route intraperitoneal
Rattus norvegicus [14] = assay: Antiinflammatory activity in Sprague-Dawley rat osteoarthritis model assessed as efficacy at 10 mg/kg, ip after 20 days; format: functional; conditions: route intraperitoneal
Rattus norvegicus [15] = assay: Antiinflammatory activity in ip dosed Sprague-Dawley rat osteoarthritis model assessed as efficacy measured after 20 days; format: functional; conditions: 480 h
[16] = Plasma concentration in Sprague-Dawley rat osteoarthritis model at 1 mg/kg, ip after 45 mins; format: ADME, organism-based; design: dose 1 mg/kg, route intraperitoneal
[17] = Plasma concentration in Sprague-Dawley rat osteoarthritis model at 3 mg/kg, ip after 45 mins; format: ADME, organism-based; design: dose 3 mg/kg, route intraperitoneal
[18] = Plasma concentration in Sprague-Dawley rat osteoarthritis model at 10 mg/kg, ip after 45 mins; format: ADME, organism-based; design: dose 10 mg/kg, route intraperitoneal
Rattus norvegicus [19] = assay: Ex vivo receptor occupancy of histamine H3 receptor in Sprague-Dawley rat osteoarthritis model at 1 mg/kg, ip; format: functional; conditions: route intraperitoneal
Rattus norvegicus [20] = assay: Ex vivo receptor occupancy of histamine H3 receptor in Sprague-Dawley rat osteoarthritis model at 3 mg/kg, ip; format: functional; conditions: route intraperitoneal
Rattus norvegicus [21] = assay: Ex vivo receptor occupancy of histamine H3 receptor in Sprague-Dawley rat osteoarthritis model at 10 mg/kg, ip; format: functional; conditions: route intraperitoneal
Rattus norvegicus [22] = assay: Ex vivo receptor occupancy of NET in Sprague-Dawley rat osteoarthritis model at 1 mg/kg, ip; format: functional; conditions: route intraperitoneal
Rattus norvegicus [23] = assay: Ex vivo receptor occupancy of NET in Sprague-Dawley rat osteoarthritis model at 3 mg/kg, ip; format: functional; conditions: route intraperitoneal
Rattus norvegicus [24] = assay: Ex vivo receptor occupancy of NET in Sprague-Dawley rat osteoarthritis model at 10 mg/kg, ip; format: functional; conditions: route intraperitoneal
Rattus norvegicus [25] = assay: Antiinflammatory activity in ip dosed Sprague-Dawley rat osteoarthritis model assessed as efficacy measured at 370 nM plasma concentration after 20 days; format: functional

Sequence of Histamine H3 receptor (Rattus norvegicus, UniProt Q9QYN8) (Q9QYN8 whole entry): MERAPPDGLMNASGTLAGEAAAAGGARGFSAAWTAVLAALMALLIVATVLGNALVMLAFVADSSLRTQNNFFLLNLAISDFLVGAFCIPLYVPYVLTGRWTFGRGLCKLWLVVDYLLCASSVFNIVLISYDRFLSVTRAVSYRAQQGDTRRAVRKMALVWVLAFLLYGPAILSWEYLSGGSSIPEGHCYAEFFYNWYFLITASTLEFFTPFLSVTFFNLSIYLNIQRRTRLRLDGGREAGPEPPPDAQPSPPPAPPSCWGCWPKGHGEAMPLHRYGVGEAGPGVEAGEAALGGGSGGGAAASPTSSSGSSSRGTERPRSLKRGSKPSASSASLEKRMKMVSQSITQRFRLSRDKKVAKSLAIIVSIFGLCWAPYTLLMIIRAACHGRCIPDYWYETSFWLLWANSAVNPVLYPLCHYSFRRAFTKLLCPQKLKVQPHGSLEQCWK
Sequence of Sodium-dependent serotonin transporter (P31645 whole entry): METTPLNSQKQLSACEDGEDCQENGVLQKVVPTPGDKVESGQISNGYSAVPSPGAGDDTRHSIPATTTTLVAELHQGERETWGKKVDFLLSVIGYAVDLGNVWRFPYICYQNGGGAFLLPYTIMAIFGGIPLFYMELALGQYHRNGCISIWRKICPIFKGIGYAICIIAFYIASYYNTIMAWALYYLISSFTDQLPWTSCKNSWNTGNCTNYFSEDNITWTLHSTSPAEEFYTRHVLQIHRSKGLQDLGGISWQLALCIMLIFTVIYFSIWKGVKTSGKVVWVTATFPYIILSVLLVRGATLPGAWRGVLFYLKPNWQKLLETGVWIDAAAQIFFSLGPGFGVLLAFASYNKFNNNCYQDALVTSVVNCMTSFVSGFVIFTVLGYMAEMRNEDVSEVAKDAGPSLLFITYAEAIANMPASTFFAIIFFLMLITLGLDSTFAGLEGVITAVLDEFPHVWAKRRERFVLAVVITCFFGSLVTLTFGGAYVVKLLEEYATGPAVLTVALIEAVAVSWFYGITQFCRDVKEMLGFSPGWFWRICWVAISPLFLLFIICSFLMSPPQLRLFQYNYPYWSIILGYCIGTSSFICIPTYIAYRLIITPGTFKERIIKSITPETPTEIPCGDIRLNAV
T1 sequence (Q9Y5N1 whole entry): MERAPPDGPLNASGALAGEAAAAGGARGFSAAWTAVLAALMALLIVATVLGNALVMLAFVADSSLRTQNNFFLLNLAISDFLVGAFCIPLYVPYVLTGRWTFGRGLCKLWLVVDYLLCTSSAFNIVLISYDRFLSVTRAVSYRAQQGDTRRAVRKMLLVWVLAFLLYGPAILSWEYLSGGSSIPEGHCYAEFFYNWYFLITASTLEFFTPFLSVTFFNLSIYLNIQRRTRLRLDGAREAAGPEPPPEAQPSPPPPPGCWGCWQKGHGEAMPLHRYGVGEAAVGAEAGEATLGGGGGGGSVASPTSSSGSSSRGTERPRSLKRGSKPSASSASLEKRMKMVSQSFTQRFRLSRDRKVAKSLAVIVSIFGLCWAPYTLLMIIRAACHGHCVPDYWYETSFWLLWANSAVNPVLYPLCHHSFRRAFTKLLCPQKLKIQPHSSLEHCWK
Sequence of Transporter (Q63380 whole entry): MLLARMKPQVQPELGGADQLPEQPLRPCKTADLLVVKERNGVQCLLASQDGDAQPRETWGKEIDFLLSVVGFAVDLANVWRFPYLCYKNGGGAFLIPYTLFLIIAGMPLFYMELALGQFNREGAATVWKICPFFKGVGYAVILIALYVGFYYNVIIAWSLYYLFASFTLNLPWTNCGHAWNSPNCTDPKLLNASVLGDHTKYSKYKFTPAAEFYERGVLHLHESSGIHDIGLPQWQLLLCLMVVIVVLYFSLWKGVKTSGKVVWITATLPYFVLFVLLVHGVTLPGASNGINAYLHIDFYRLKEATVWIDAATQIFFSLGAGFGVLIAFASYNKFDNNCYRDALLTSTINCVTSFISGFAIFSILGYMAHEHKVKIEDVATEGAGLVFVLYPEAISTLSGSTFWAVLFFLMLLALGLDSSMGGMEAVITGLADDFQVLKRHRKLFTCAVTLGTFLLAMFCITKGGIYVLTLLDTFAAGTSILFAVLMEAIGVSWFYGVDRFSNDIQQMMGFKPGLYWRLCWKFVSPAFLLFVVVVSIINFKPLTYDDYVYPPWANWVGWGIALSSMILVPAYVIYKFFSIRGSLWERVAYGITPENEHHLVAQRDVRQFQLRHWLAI

Ki [1]: > 70 nM | Ki (Histamine H3 receptor [2]): 5.2 nM | Ki (Transporter): 4.3 nM | Ki (Histamine H3 receptor [3]): 1.4 nM
Compound: CNCCC(c1ccccc1)c1ccc(OCCN2CCCC2)cc1 (centres undefined)

Kb (Histamine H3 receptor [4]): 2.4 nM | Ki [1]: > 70 nM | Ki (Histamine H3 receptor [2]): 5.4 nM | Ki (Transporter): 89 nM | Ki (Histamine H3 receptor [3]): 1.6 nM
Compound: CNCCN(c1ccccc1)c1ccc(OCCN2CCCC2)cc1

Kb (Histamine H3 receptor [4]): 67 nM | Ki (Histamine H3 receptor [2]): 48 nM | Ki (Transporter): 230 nM
Compound: CNCCC(Oc1cccc2cc(OCCN3CCCC3)ccc12)c1ccccc1 (centres undefined)

Kb (Histamine H3 receptor [4]): 0.79 nM | Ki [1]: > 70 nM | Ki (Histamine H3 receptor [2]): 0.72 nM | Ki (Transporter): 110 nM | Ki (Histamine H3 receptor [3]): 0.28 nM
Compound: CNCCCN(c1ccccc1)c1ccc(OCCN2CCCC2)cc1

Ki [1]: 2.4 nM
Compound: CNCCC(c1ccccc1)c1cccc2ccccc12 (centres undefined)

Kb (Histamine H3 receptor [4]): 8.3 nM | Cmax [5]: 210 ng/mL | Tmax [6]: 0.25 h | bioavailability [7]: 43% | Vd [8]: 8.2 L/kg | clearance [9]: 7.67 mL/min/kg | half-life [10]: 12 h | fraction unbound [11]: 0.33 | fraction unbound [12]: 0.33 | concentration at 0.75 h [16]: 129 ng/mL | concentration at 0.75 h [17]: 382 ng/mL | concentration at 0.75 h [18]: 1240 ng/mL | Ki [1]: 7 nM | Ki (Histamine H3 receptor [2]): 37 nM | Ki (Transporter): 14 nM | Ki (Histamine H3 receptor [3]): 7.4 nM
Compound: CNCCC(c1ccccc1)c1ccc(O)c2ccc(OCCN3CCCC3)cc12 (centres undefined)
Activity (Rattus norvegicus [13]): 70% | Activity (Rattus norvegicus [14]): 93% | ED50 (Rattus norvegicus [15]): 1.2 mg/kg | Activity (Rattus norvegicus [19]): 74% | Activity (Rattus norvegicus [20]): 89% | Activity (Rattus norvegicus [21]): 97% | Activity (Rattus norvegicus [22]): 88% | Activity (Rattus norvegicus [23]): 96% | Activity (Rattus norvegicus [24]): 99% | ED50 (Rattus norvegicus [25]): 0.15 µg/mL (≈ 0.371 µM)

Kb (Histamine H3 receptor [4]): 2.1 nM | Ki [1]: > 70 nM | Ki (Histamine H3 receptor [2]): 2.9 nM | Ki (Transporter): 14 nM | Ki (Histamine H3 receptor [3]): 0.89 nM
Compound: CNCCCC(c1ccccc1)c1ccc(OCCN2CCCC2)cc1 (centres undefined)
